Measured values: patent publication US11667602B2, “Compounds and their use” (AstraZeneca AB, priority 2020, dated 2023)
In brackets after ≈: the same amount, converted by molar mass. Where two headings read alike, the source gives them in different places.

Legend:
[1] = Human Plasma Protein Binding (Test B); format: in vitro ADME; conditions: fraction unbound (fu)
Summary of the method: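 Values given as % free (fu) in human plasma, using the method of Wernevik et al. (2020). For compounds tested more than once, the arithmetic mean is given.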

[2] = Human Liver Microsomal Stability (Test C); format: in vitro ADME; conditions: for microsomal CLint: human, liver microsomes
Summary of the method: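 CLint (μl/min/mg protein) derived from compound depletion in human liver microsomes following a published standardized early-DMPK protocol; replicate determinations given as arithmetic mean.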

[3] = Human Hepatocyte Stability (Test D); format: in vitro ADME; conditions: geometric mean if run multiple times; for hepatocyte CLint at 1 µM: human, cryopreserved pooled human hepatocytes (LiverPool 10-Donor)
Summary of the method: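 Intrinsic clearance (μL/min/10^6 cells), derived as kV/N from the log-linear loss of parent compound. Compound incubated at 37 °C with cryopreserved pooled human hepatocytes, 0.25×10^6 cells in 0.25 mL L-15; dosing solution 100 μM in acetonitrile. Singlicate incubations, cassette LC-MS; repeats reported as geometric mean.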

[4] = Rat Hepatocyte Stability (Test E); format: in vitro ADME; conditions: geometric mean if run multiple times; for hepatocyte CLint: rat, hepatocytes
Summary of the method: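 Intrinsic clearance in rat hepatocytes, expressed as μl/min/10^6 cells, following the literature integrated DMPK panel method. Repeat determinations combined as geometric mean.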

Solubility (Test F) = format: physicochemical; conditions: arithmetic mean if run multiple times
Procedure: The assay was conducted according to the Solubility Assay described in pages 164-167 of Wernevik, J. et al., “A Fully Integrated Assay Panel for Early Drug Metabolism and Pharmacokinetics Profiling”, Assay and Drug Development Technologies, 2020, 18(4), 157-179. Data are reported in Table 36 as solubility ([…]. Where the assay was run multiple times for the same compound, the arithmetic mean is reported.

human RXFP1 = target: T1, human RXFP1 (Homo sapiens, UniProt Q9HBX9); assay: RXFP1 Hu cAMP (Test A); format: cell-based; set-up: expressed in transfected cells; host or cells: Jump-In T-REx CHO-K1 cells (ThermoFisher), induced with 10 ng/ml doxycycline for 24 h
T1 sequence (Q9HBX9 1-757): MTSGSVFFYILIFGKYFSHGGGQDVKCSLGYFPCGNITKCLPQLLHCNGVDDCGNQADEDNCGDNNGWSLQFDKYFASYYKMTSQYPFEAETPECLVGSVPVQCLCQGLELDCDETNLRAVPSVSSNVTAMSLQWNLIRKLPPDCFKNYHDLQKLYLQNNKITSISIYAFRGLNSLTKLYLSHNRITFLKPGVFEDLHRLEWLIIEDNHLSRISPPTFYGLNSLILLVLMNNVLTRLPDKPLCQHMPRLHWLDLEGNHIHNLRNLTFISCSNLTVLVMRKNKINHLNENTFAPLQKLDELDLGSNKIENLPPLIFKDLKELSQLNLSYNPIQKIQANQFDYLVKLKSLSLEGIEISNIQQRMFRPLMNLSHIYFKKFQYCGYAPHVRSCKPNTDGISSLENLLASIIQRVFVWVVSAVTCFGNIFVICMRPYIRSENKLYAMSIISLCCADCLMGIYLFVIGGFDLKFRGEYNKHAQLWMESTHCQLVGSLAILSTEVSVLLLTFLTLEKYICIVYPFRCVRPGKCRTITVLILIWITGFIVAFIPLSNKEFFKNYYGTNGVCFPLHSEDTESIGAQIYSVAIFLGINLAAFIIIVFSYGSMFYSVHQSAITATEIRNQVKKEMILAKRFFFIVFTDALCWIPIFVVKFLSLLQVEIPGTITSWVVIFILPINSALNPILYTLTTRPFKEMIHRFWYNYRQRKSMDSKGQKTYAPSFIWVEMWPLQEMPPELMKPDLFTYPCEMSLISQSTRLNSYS
Summary of the method: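 Read-out is HTRF signal, inversely proportional to cAMP, converted to cAMP amount by standard curve. Stimulation occurred in inducible CHO-K1 cells expressing the human receptor with phosphodiesterases blocked by 0.5 mM IBMX.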

[5] = RXFP1 Hu cAMP, read-out: Test A EC50

Row | Test B Human Plasma Protein Binding (% free) [1] [% free] | microsomal CLint [2] [µL/min/mg] | hepatocyte CLint at 1 µM [3] [µL/min/1e6 cells] | hepatocyte CLint [4] [µL/min/1e6 cells] | solubility (Solubility (Test F)) [µM] | Test A Sinf (human RXFP1; RXFP1 Hu cAMP) [%] | EC50 (human RXFP1; [5]) [nM] | SMILES | EC50 (human RXFP1; Test A EC50, RXFP1 Hu cAMP) [nM] | Test C Human Liver Microsomal Stability Clint ([2]; human liver microsomes) [µL/min/mg] | Test D Human Hepatocyte Stability Clint ([3]; human hepatocytes) [μL/min/10^6 cells] | Test E Rat Hepatocyte Stability Clint ([4]; rat hepatocytes) [μL/min/10^6 cells]
1 | 2.1 | 42 | 15 | 23 | 550 (≈ 361 µg/mL) | 102 | 42 | COc1cc(F)c(O[C@H]2CC[C@@H](C(=O)O)CC2)cc1C(=O)N[C@@H]1[C@H]2CC[C@H](C2)[C@@H]1C(=O)Nc1cccc(S(=O)(=O)C(F)(F)F)c1 [Example 491] | – | – | – | –
2 | 2.5 | 18 | 15 | 22 | > 1000 | 117 | 120 | COc1cc(F)c(O[C@H]2C[C@@H](C(=O)O)C2)cc1C(=O)NC1[C@H]2CC[C@H](C2)[C@@H]1C(=O)Nc1cccc(S(=O)(=O)C(F)(F)F)c1 (stereo partly drawn) [Example 444] | – | – | – | –
3 | 6.7 | 110 | 13 | 14 | 10 (≈ 6.78 µg/mL) | 105 | 110 | COc1cc(F)c(O[C@H]2CC[C@@](C)(C(=O)O)CC2)cc1C(=O)N[C@@H]1[C@H]2CC[C@H](C2)[C@@H]1C(=O)N[C@@H]1CCCN(S(=O)(=O)C(F)(F)F)C1 [Example 604] | – | – | – | –
4 | 0.44 | > 300 | 45 | 98 | 8 (≈ 4.88 µg/mL) | 110 | 64 | COc1cc(F)c(O[C@H]2CC[C@@H](C(N)=O)CC2)cc1C(=O)N[C@@H]1[C@H]2CC[C@H](C2)[C@@H]1C(=O)Nc1ccc(F)c(C(F)(F)F)c1 [Example 500, (1R,2S,3R,4S)-3-(5-(((1s,4S)-4-Carbamoylcyclohexyl)oxy)-4-fluoro-2-methoxybenzamido)-N-(4-fluoro-3-(trifluoromethyl)phenyl)bicyclo[2.2.1]heptane-2-carboxamide] | – | – | – | –
5 | 1.2 | < 3 | 3.3 | 9.8 | 6.5 (≈ 3.34 µg/mL) | 129 | 320 | COc1cc(F)c(O[C@H]2CC[C@@](C)(C(=O)O)CC2)cc1C(=O)Nc1ccccc1C(=O)NCC(C)(C)C [Example 142, (1s,4s)-4-(2-Fluoro-4-methoxy-5-((2-(neopentylcarbamoyl)phenyl)-carbamoyl)phenoxy)-1-methylcyclohexane-1-carboxylic acid] | – | – | – | –
6 | 3.6 | 16 | 6.2 | 23 | 920 (≈ 621 µg/mL) | 110 | 25 | COc1cc(F)c(OC2CCC(C)(C(=O)O)CC2)cc1C(=O)NC1CC(OC)CC1C(=O)Nc1cccc(S(=O)(=O)C(F)(F)F)c1 (single isomer, unassigned) [Example 524, (1R,4s)-4-(2-Fluoro-4-methoxy-5-(((1S*,2R*,4R*)-4-methoxy-2-((3-((trifluoromethyl)sulfonyl)phenyl)carbamoyl)cyclopentyl)carbamoyl)phenoxy)-1-methylcyclohexane-1-carboxylic acid] | – | – | – | –
7 | 14 | < 3 | < 1 | 18 | 800 (≈ 430 µg/mL) | 111 | 140 | COc1cc(C#N)c(O[C@H]2CC[C@@](C)(C(=O)O)CC2)cc1C(=O)N[C@@H]1[C@H]2CC[C@H](C2)[C@@H]1C(=O)NC1(C)CCC1 [Example 90] | – | – | – | –
8 | 0.13 | 23 | 12 | 22 | 1000 (≈ 667 µg/mL) | 115 | < 3.6 | COc1cc(F)c(O[C@H]2CC[C@@H](C(=O)O)CC2)cc1C(=O)N[C@H]1[C@@H](C(=O)Nc2ccc(F)c(S(F)(F)(F)(F)F)c2)[C@@H]2C=C[C@H]1C2 [Example 488, (1S,4s)-4-(2-fluoro-5-(((1R,2R,3S,4S)-3-((4-fluoro-3-(pentafluoro-λ6-sulfaneyl)phenyl)carbamoyl)bicyclo[2.2.1]hept-5-en-2-yl)carbamoyl)-4-methoxyphenoxy)cyclohexane-1-carboxylic acid] | – | – | – | –
9 | 7 | 6.5 | 1.9 | 19 | > 1000 | 99 | 260 | CCC(C)(C)CNC(=O)[C@H]1CCC[C@H]1NC(=O)c1cc(O[C@H]2CC[C@@](C)(C(=O)O)CC2)c(F)cc1OC [Example 58, (1S,4s)-4-(5-(((1R,2S)-2-((2,2-Dimethylbutyl)carbamoyl)cyclopentyl)carbamoyl)-2-fluoro-4-methoxyphenoxy)-1-methylcyclohexane-1-carboxylic acid] | – | – | – | –

Row | SMILES | Test B Human Plasma Protein Binding (% free) [1] [% free] | microsomal CLint [2] [µL/min/mg] | hepatocyte CLint at 1 µM [3] [µL/min/1e6 cells] | hepatocyte CLint [4] [µL/min/1e6 cells] | solubility (Solubility (Test F)) [µM] | Test A Sinf (human RXFP1; RXFP1 Hu cAMP) [%] | EC50 (human RXFP1; [5]) [nM] | EC50 (human RXFP1; Test A EC50, RXFP1 Hu cAMP) [nM] | Test C Human Liver Microsomal Stability Clint ([2]; human liver microsomes) [µL/min/mg] | Test D Human Hepatocyte Stability Clint ([3]; human hepatocytes) [μL/min/10^6 cells] | Test E Rat Hepatocyte Stability Clint ([4]; rat hepatocytes) [μL/min/10^6 cells]
10 | COc1cc(F)c(O[C@H]2CC[C@@H](C(=O)O)CC2)cc1C(=O)N[C@@H]1[C@H]2CC[C@H](C2)[C@@H]1C(=O)NCC(C)(C)C [Example 180, (1S,4s)-4-(2-Fluoro-4-methoxy-5-(((1S,2R,3S,4R)-3-(neopentylcarbamoyl)bicyclo[2.2.1]heptan-2-yl)carbamoyl)phenoxy)cyclohexane-1-carboxylic acid] | 14 | 6.8 | 2.2 | 130 | > 1000 | 100 | – | 950 | – | – | –
11 | COc1cc(F)c(O[C@H]2CC[C@@](C)(C(=O)O)CC2)cc1C(=O)N[C@@H]1COCC[C@@H]1C(=O)Nc1cccc(S(=O)(=O)C(F)(F)F)c1 (relative stereo) [Example 559, (1R,4s)-4-(2-Fluoro-4-methoxy-5-(((3S*,4S*)-4-((3-((trifluoromethyl)sulfonyl)phenyl)carbamoyl)tetrahydro-2H-pyran-3-yl)carbamoyl)phenoxy)-1-methylcyclohexane-1-carboxylic acid] | 2.5 | – | – | – | 900 (≈ 595 µg/mL) | 102 | 1200 | – | 9.4 | 4.1 | 8.4
12 | COc1cc(F)c(O[C@H]2CC[C@@](C)(C(=O)O)CC2)cc1C(=O)N[C@@H]1[C@H]2CC[C@H](C2)[C@@H]1C(=O)NCC(C)(C)C [Example 35, (1S,4s)-4-(2-Fluoro-4-methoxy-5-(((1S,2R,3S,4R)-3-(neopentylcarbamoyl)bicyclo[2.2.1]heptan-2-yl)carbamoyl)phenoxy)-1-methylcyclohexane-1-carboxylic acid] | 8.2 | 14 | 2.7 | 23 | > 730 | – | – | 39 | – | – | –
13 | CC1(CNC(=O)[C@H]2[C@H]3CC[C@H](C3)[C@H]2NC(=O)c2cc(O[C@H]3CC[C@@](C)(C(=O)O)CC3)c(C#N)cc2F)CCC1 [Example 413] | 1.5 | 9.3 | 4.5 | 21 | 820 (≈ 443 µg/mL) | 107 | – | 16 | – | – | –
